{"source": "paper PMC9603476", "about": "“Desaturation of the Sphingofungin Polyketide Tail Results in Increased Serine Palmitoyltransferase Inhibition” (Microbiology Spectrum, 2022)", "molecular_target": "T1, SPT (serine palmitoyltransferase) (Sphingomonas paucimobilis, UniProt Q93UV0)", "T1 construct": "soluble homodimer", "T1 sequence (Q93UV0 whole entry)": "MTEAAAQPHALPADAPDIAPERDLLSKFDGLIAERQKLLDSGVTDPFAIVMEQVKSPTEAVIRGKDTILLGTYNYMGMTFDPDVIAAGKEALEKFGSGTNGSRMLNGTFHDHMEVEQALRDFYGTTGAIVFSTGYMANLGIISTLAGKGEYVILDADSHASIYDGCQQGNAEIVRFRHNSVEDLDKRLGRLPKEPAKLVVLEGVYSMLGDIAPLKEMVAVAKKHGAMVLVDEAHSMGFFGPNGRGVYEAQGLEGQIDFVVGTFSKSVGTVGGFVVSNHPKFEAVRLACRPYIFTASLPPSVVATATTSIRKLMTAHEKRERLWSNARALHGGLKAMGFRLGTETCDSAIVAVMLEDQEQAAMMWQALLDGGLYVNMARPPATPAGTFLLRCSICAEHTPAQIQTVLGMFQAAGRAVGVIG", "assay": "HPLC-HRMS of 3-ketodihydrosphingosine; coupled PPi assay", "type": "biochemical", "conditions": "pH 7.5, 37°C", "data": [{"smiles": "CCCCCCCCCCCCCCCC(=O)SCCNC(=O)CCNC(=O)[C@H](O)C(C)(C)COP(=O)(O)OP(=O)(O)OC[C@H]1O[C@@H](n2cnc3c(N)ncnc32)[C@H](O)[C@@H]1OP(=O)(O)O", "note": "[palmitoyl-CoA]", "values": [{"measurement": "HPLC-HRMS of 3-ketodihydrosphingosine; coupled PPi assay", "setting": "5 mM serine, palmitoyl-CoA regenerated by FadD", "result": "we verified the production of 3-ketodihydrosphingosine by our SPT reaction"}]}, {"smiles": "N[C@@H](CO)C(=O)O", "note": "[serine]", "values": [{"measurement": "HPLC-HRMS of 3-ketodihydrosphingosine; coupled PPi assay", "setting": "with palmitoyl-CoA regenerated by FadD, serine concentration varied", "result": "we verified the production of 3-ketodihydrosphingosine by our SPT reaction"}]}]}
